The record followed here is publication PMC4648050, “Discovery of Inhibitors of Trypanosoma brucei by Phenotypic Screening of a Focused Protein Kinase Library” (Chemmedchem, 2015).

The experiment concerns T. brucei bloodstream-stage cells. As to the kind of experiment: Static–cidal (SC) assay. It counts as cell-based, Trypanosoma brucei brucei. As to conditions: for EC50: 48 h.

“Also recorded” adds a separate entry of the source. Like-named read-outs stand apart in the source and are kept apart here. A value given as a limit tells only on which side of the number the result lay.

Regarding `O=c1[nH]c2ncc(-c3ccccc3CO)nc2n1C1CCCCC1` [Compound 28], the 50% effective concentration (EC50) (Trypanosoma brucei, static cidal EC50, first site/phase, read-out: SC EC50(1)) was found to be 100 nM and the EC50 (Trypanosoma brucei, static cidal EC50, second site/phase, read-out: SC EC50(2)) is over 50000 nM. The MCC (Trypanosoma brucei, static–cidal assay in triplicate, read-out: MCC (minimal cidal concentration)) is over 50 µM. Moreover, the “mode of antiparasitic effect (in words)” value (text and figure legend, at concentrations tested) is “growth-slowing or static behaviour; also recorded: growth-slowing”.
